Experimental data reported in patent US20090247520A1, “INHIBITORS OF ANTIGEN RECEPTOR-INDUCED NF-kappa B ACTIVATION” (The Burnham Institute for Medical Research, priority 2008, published 2009).
“Also recorded” adds a separate entry of the source.

Columns and labels:
[1] = test system: CD4-TLR4 induced NF-κB reporter gene activity; experiment: NF-κB reporter in HEK293-NF-κB-luc cells transfected with CD4-TLR4; assay type: cell-based; conditions: CID-2858522 4 μM, IKK inhibitor 10 μM, PKC inhibitor 1 μM
Protocol: (§1) FIGS. 3 (A-F) HEK293-NF-κB-luc cells were pretreated with CID-2858522 (4 μM), IKK inhibitor, BMS-335541 (10 μM), or PKC inhibitor, Bisindolylmaleimide I (1 μM) for 2 hrs and then transfected with plasmids encoding CD4/TLR4 (A), CD40 (B), NOD1 (C), NOD2 (D), cIAP2-MALT1 (E), or XIAP and TAB (F), or pcDNA as control (compounds were not removed). After 48 hrs, luciferase activity was measured expressing data as fold increase relative to unstimulated cells (mean±SD; n=3). (G-H) HEK293-NF-κB-luc cells were pretreated with CID-2858522 (4 μM), or IKK inhibitor, BMS-335541 (10 μM) for 2 hrs and then cultured with 2 μM doxorubicin (G) or 16 μM retinoic acid (H). After 48 hrs, luciferase activity was measured as above.
(§2) Counter Screening and Secondary Assays. To counter-screen for inhibitors of the TNF pathway, HEK293-NFκB-Luc cells were seeded at 10^5 cells per well in 90 μL medium in white 96-well plates (Greiner Bio-One) and cultured overnight, before adding compounds (5 μL in medium) to cells. […] Luciferase activity was measured using Britelite kit (Perkin Elmer). […] Cells were cultured in medium containing CID-2858522 or other compounds and luciferase activity was measured 48 h later. […] Reactions were then initiated by addition of 50 μL 160 nM ATP (Sigma) in PBS and luciferase activity was measured 2 h later using a luminometer (LJL Biosystems, Sunnyvale, Calif.).

[2] = test system: CD40-induced NF-κB reporter gene activity; experiment: NF-κB reporter in HEK293-NF-κB-luc cells over-expressing CD40; assay type: cell-based; conditions: CID-2858522 4 μM, IKK inhibitor 10 μM, PKC inhibitor 1 μM
Protocol: as §1
(§3) Counter Screening and Secondary Assays. To counter-screen for inhibitors of the TNF pathway, HEK293-NFκB-Luc cells were seeded at 10^5 cells per well in 90 μL medium in white 96-well plates (Greiner Bio-One) and cultured overnight, before adding compounds (5 μL in medium) to cells. After 2 h incubation, 5 μL TNF (200 ng/mL) (R&D Systems) was added (final concentration 10 ng/mL) and cells were incubated for 16 h. Luciferase activity was measured using Britelite kit (Perkin Elmer). To counter-screen for inhibitors of NF-κB induced by TLR4, CD40, NOD1, NOD2, cIAP2/MALT, or XIAP/TAB, the 293-NF-κB-luc cells cultured in 96 well plates as above were pretreated with compounds for 2 h and then transfected using Lipofectamine 2000 with various plasmids including pcDNA3 (“empty vector” control) or plasmids encoding CD4-TLR4, CD40, NOD1, NOD2, cIAP2/MALT, XIAP/TAB, using 0.2 μL of transfection reagent containing 100 ng DNA per well. Cells were cultured in medium containing CID-2858522 or other compounds and luciferase activity was measured 48 h later. […] Reactions were then initiated by addition of 50 μL 160 nM ATP (Sigma) in PBS and luciferase activity was measured 2 h later using a luminometer (LJL Biosystems, Sunnyvale, Calif.).

[3] = test system: NOD1 (NLRC1) induced NF-κB-luciferase reporter gene activity; experiment: NF-κB reporter in HEK293-NF-κB-luc cells over-expressing NOD1; assay type: cell-based; conditions: CID-2858522 4 μM, IKK inhibitor 10 μM
Protocol: as §1, §2

[4] = test system: NOD2 (NLRC2) induced NF-κB-luciferase reporter gene activity; experiment: NF-κB reporter in HEK293-NF-κB-luc cells over-expressing NOD2; assay type: cell-based; conditions: CID-2858522 4 μM, IKK inhibitor 10 μM
Protocol: as §1, §2

[5] = test system: cIAP2/MALT oncoprotein induced NF-κB activation; experiment: NF-κB reporter in 293-NF-κB-luciferase cells transfected with cIAP2/MALT; assay type: cell-based; conditions: CID-2858522 4 μM, IKK inhibitor 10 μM
Protocol: as §1, §3

[6] = test system: XIAP plus TAB induced NF-κB activation; experiment: NF-κB reporter in 293-NF-κB-luciferase cells transfected with XIAP plus TAB; assay type: cell-based; conditions: CID-2858522 4 μM, IKK inhibitor 10 μM
Protocol: as §1, §3

[7] = test system: doxorubicin-induced NF-κB activity; experiment: NF-κB reporter in HEK293-NF-κB-luc cells stimulated with doxorubicin; assay type: cell-based; conditions: 2 μM doxorubicin; CID-2858522 4 μM, IKK inhibitor 10 μM
Protocol: as §1, §2

[8] = test system: retinoic acid-induced NF-κB activity; experiment: NF-κB reporter in HEK293-NF-κB-luc cells treated with all-trans-retinoic acid; assay type: cell-based; conditions: 16 μM retinoic acid; CID-2858522 4 μM, IKK inhibitor 10 μM
Protocol: as §1, §2

[9] = target: T1, IKK-beta (Homo sapiens, UniProt O14920); experiment: In vitro kinase assay IKK-beta (HTScan kit); assay type: biochemical; conditions: CID-2858522 up to 8 μM; STS 0.5 μM; IKK inhibitor 10 μM
T1 construct: purchased Cell Signaling, Danvers, Mass
T1 sequence (O14920 whole entry): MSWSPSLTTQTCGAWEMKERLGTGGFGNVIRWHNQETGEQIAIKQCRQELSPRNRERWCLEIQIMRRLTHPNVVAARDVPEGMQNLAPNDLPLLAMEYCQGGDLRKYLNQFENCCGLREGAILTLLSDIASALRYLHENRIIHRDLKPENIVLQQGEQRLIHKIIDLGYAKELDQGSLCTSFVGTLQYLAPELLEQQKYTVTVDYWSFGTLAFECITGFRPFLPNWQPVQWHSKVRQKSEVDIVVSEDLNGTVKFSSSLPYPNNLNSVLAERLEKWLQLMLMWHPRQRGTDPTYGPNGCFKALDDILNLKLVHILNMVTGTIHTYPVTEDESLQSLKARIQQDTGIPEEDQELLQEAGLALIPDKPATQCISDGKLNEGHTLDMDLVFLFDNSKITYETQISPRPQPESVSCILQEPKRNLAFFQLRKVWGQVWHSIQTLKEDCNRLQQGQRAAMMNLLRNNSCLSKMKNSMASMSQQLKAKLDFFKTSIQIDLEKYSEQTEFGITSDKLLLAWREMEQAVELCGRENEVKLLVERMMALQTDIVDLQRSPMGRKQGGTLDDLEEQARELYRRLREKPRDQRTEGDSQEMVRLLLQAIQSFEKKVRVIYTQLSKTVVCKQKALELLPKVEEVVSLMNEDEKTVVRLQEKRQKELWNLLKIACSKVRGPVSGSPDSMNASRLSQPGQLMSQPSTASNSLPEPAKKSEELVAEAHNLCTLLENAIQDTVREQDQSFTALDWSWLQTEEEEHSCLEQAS
Protocol: (§4) CID-2858522 (8 μM) were tested in in vitro IKK beta (A), PKC beta […] or PKC theta (C) kinase assays using kits. STS (0.5 μM), IKK inhibitor (10 μM) and PKC inhibitor (1 μM) were used as positive controls.
(§5) In Vitro Kinase Assays. PKC-beta, PKC-theta and IKK-beta in vitro kinase assays were performed using the HTScan Kinase Assay Kit (Cell Signaling, Danvers, Mass.) according to manufacturer's protocols. A panel of >300 kinases was screened by Ambit, Inc.

[10] = target: T2, PKC-beta (Homo sapiens, UniProt P05771); experiment: In vitro kinase assay PKC-beta (HTScan kit); assay type: biochemical; conditions: CID-2858522 up to 8 μM; STS 0.5 μM; PKC inhibitor 1 μM
T2 construct: purchased Cell Signaling, Danvers, Mass
T2 sequence (P05771 whole entry): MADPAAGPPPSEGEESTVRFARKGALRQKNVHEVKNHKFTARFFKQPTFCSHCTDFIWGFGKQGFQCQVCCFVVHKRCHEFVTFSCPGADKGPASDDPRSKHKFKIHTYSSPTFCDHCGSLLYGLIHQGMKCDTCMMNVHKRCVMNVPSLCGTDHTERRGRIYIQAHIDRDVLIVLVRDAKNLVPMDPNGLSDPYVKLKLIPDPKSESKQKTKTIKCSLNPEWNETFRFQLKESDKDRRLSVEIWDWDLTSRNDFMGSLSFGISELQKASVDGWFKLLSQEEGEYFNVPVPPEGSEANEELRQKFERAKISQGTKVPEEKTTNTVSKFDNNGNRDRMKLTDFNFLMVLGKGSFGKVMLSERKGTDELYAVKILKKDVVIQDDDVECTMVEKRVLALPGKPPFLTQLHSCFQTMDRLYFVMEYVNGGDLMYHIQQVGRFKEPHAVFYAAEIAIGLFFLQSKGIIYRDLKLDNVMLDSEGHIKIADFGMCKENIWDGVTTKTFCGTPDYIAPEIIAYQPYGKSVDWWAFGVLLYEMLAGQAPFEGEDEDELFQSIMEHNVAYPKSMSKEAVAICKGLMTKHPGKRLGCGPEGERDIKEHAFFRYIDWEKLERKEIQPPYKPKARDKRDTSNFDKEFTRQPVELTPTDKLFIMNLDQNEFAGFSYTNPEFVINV
Protocol: as §4, §5

[11] = target: T3, PKC-theta (Homo sapiens, UniProt Q04759); experiment: In vitro kinase assay PKC-theta (HTScan kit); assay type: biochemical; conditions: CID-2858522 up to 8 μM; STS 0.5 μM; PKC inhibitor 1 μM
T3 construct: purchased Cell Signaling, Danvers, Mass
T3 sequence (Q04759 whole entry): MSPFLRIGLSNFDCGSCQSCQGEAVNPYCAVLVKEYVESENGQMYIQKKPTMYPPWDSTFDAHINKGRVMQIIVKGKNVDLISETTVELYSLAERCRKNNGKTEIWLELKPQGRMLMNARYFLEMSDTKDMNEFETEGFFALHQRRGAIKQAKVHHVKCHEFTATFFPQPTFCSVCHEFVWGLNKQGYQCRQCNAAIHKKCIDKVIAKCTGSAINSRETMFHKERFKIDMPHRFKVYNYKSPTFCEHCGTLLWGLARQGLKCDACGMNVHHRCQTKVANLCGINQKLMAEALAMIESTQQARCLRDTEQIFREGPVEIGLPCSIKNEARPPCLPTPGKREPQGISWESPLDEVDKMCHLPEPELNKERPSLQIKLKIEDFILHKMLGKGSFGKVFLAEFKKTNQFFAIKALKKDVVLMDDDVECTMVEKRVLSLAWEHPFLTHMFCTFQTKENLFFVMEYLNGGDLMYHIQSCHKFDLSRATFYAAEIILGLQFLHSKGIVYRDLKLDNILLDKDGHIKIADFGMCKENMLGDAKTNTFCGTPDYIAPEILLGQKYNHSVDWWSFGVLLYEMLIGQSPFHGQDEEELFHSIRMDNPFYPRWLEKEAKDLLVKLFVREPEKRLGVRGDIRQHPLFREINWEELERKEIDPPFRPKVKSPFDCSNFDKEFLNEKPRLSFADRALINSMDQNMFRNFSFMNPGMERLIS
Protocol: as §4, §5

[12] = test system: MALT1-caspase-8 interaction; experiment: PMA-induced MALT1-caspase-8 interaction in HEK293 cells; assay type: cell-based; conditions: HEK293 over-expressing Flag-MALT1 and Caspase-8, PMA
Description: Caspase-8 plays an essential role in antigen receptor-mediated NF-κB activation. It was recently reported that MALT1 interacts with Caspase-8 and activates this protease upon antigen receptor activation. […] We then examined if CID-2858522 affected the pathway at this point. PMA induced significant MALT1-caspase-8 interaction in HEK293 cells over-expressing Flag-MALT1 and Caspase-8. […] The caspase-8 p43/41 processing intermediate was generated in HEK293 cells after PMA/Ion treatment. […] We then assessed the effects of CID-2858522 on PMA-induced proteolytic processing of c-FLIP, a Caspase-8-mediated event recently shown to be required for antigen receptor mediated NF-κB activation.

| Structure (SMILES) | suppression of TLR4 (CD4-TLR4) induced NF-κB reporter [1] | suppression of CD40-induced NF-κB reporter [2] | inhibition of NOD1-induced NF-κB reporter [3] | inhibition of NOD2-induced NF-κB reporter [4] | suppression of cIAP2/MALT-driven NF-κB activation [5] | suppression of XIAP plus TAB-driven NF-κB activation [6] | suppression of doxorubicin-induced NF-κB activity [7] | suppression of retinoic acid-induced NF-κB activity [8] | inhibition of IKK-beta kinase activity [9] | suppression of cIAP2/MALT-driven NF-κB activation ([5]; listed as CID-288522) | suppression of XIAP plus TAB-driven NF-κB activation ([6]; listed as CID-288522) | inhibition of PKC-beta kinase activity [10] | inhibition of PKC-theta kinase activity [11] | inhibition of MALT1-caspase-8 interaction [12] |
| --- | --- | --- | --- | --- | --- | --- | --- | --- | --- | --- | --- | --- | --- | --- |
| Cc1ccc2nc(NCCN)c3ncc(C)n3c2c1 [BMS-345541, reference compound] | suppressed | potently suppressed | inhibited | inhibited | effectively suppressed | effectively suppressed | suppressed | significantly suppressed | potent inhibition | – | – | – | – | – |
| Cc1cc2nc(NCCCO)n(CC(=O)c3cc(C(C)(C)C)c(O)c(C(C)(C)C)c3)c2cc1C [Compound 1, 2-(2-(3-Hydroxypropylamino)-5,6-dimethyl-1H-benzo[d]imidazol-1-yl)-1-(3,5-di-tert-butyl-4-hydroxyphenyl)ethanone] | did not inhibit; also recorded: not by CID-2858522 | did not inhibit; also recorded: not by CID-2858522 | did not inhibit; also recorded: not by CID-2858522 | did not inhibit | did not inhibit | did not inhibit | did not inhibit | did not inhibit | failed to suppress | did not | did not | failed to suppress | failed to suppress | not by CID-2858522 |
| CN(C)CCCn1cc(C2=C(c3c[nH]c4ccccc34)C(=O)NC2=O)c2ccccc21 [Bisindolylmaleimide I, reference compound] | – | not by CID-2858522 or by the PKC inhibitor | – | – | – | – | – | – | – | – | – | potent inhibition | potent inhibition | inhibited |
